Values quoted from earlier work in patent US9764130B2, “Transdermal systems for the delivery of therapeutic agents including granisetron using iontophoresis” (Teva Pharmaceuticals International GmbH, priority 2005, dated 2017).

Conditions: transdermal iontophoresis from anode pad; hairless rat animal model; AAPS 2003/2004 abstracts

For `CN1C2CCCC1CC(NC(=O)c1nn(C)c3ccccc13)C2` (stereo not shown) [granisetron], the “time within which a therapeutic dosage is achieved with iontophoresis” value is given as “two”.
